Test results published in ChEMBL document CHEMBL4837182, “Pharmacological Analysis of the Anti-inflammatory and Antiallodynic Effects of Zinagrandinolide E from Zinnia grandiflora in Mice” (J Nat Prod, 2021).
Calls of active or inactive are those of the source. The calls are words filed in the database; no cut-off is given here.

Key:
Type in all cases: functional, organism-based
Mus musculus [1] = test: Antiallodynic activity in Swiss Webster mouse assessed as reversal of carrageenan-induced tactile allodynia at 30 ug/paw local peripheral administration pretreated with carrageenan for 6 days followed by compound addition and measured 6 hrs post compound treatment; conditions: dose 30.0 µg
Mus musculus [2] = test: Antiinflammatory activity in Swiss Webster mouse assessed as protection against carrageenan-induced paw edema at 30 ug/paw local peripheral administration and measured after 4 to 6 hrs; conditions: dose 30.0 µg, time 4-6 hrs
Mus musculus [3] = species on record: Mus musculus; test: Antiallodynic activity in Swiss Webster mouse assessed as protection against carrageenan-induced tactile allodynia at 30 ug/paw local peripheral pretreatment with compound for 15 mins followed by carrageenan challenge and measured after 6 hrs; conditions: dose 30.0 µg, time 375.0 min
Mus musculus [4] = test: Antiinflammatory activity in Swiss Webster mouse assessed as protection against carrageenan-induced paw edema at 30 ug/paw local peripheral pretreatment with compound for 15 mins followed by carrageenan challenge and measured after 6 hrs; conditions: dose 30.0 µg, time 375.0 min
Mus musculus [5] = test: Antiinflammatory activity in Swiss Webster mouse assessed as reversal of carrageenan-induced paw edema at 30 ug/paw local peripheral administration pretreated with carrageenan for 6 days followed by compound addition and measured 6 hrs post compound treatment; conditions: dose 30.0 µg
Mus musculus [6] = test: Antiinflammatory activity in Swiss Webster mouse assessed as protection against carrageenan-induced paw edema at 30 ug/paw pretreated with l-NAME for 15 mins followed by compound addition and measured after 6 hrs; conditions: dose 30.0 µg
Mus musculus [7] = test: Antiallodynic activity in hyperglycemic Swiss Webster mouse model of neuropathic pain assessed as reversal of carrageenan-induced tactile allodynia at 30 ug/paw local peripheral administration and measured after 6 hrs; conditions: dose 30.0 µg
Mus musculus [8] = test: Antiinflammatory activity in Swiss Webster mouse assessed as protection against carrageenan-induced paw edema at 30 ug/paw pretreated with flumazenil for 15 mins followed by compound addition and measured after 6 hrs; conditions: dose 30.0 µg
Mus musculus [9] = species on record: Mus musculus; test: Antiallodynic activity in Swiss Webster mouse assessed as protection against carrageenan-induced tactile allodynia at 30 ug/paw pretreated with methiothepin for 15 mins followed by compound addition and measured after 6 hrs; conditions: dose 30.0 µg
Mus musculus [10] = test: Antiallodynic activity in local peripheral dosed Swiss Webster mouse assessed as protection against carrageenan-induced tactile allodynia pretreated with compound for 15 mins followed by carrageenan challenge and measured after 6 hrs; conditions: dose 1-30 µg, time 375.0 min
Mus musculus [11] = test: Antiinflammatory activity in Swiss Webster mouse assessed as protection against carrageenan-induced paw edema at 30 ug/paw, it; conditions: dose 30.0 µg
Mus musculus [12] = test: Antiinflammatory activity in local peripheral dosed Swiss Webster mouse assessed as protection against carrageenan-induced paw edema pretreated with compound for 15 mins followed by carrageenan challenge and measured after 6 hrs; conditions: dose 1-30 µg, time 375.0 min
Mus musculus [13] = test: Antiinflammatory activity in Swiss Webster mouse assessed as protection against carrageenan-induced paw edema at 30 ug/paw pretreated with glibenclamide for 15 mins followed by compound addition and measured after 6 hrs; conditions: dose 30.0 µg
Mus musculus [14] = test: Antiallodynic activity in it dosed Swiss Webster mouse assessed as protection against carrageenan-induced tactile allodynia
Mus musculus [15] = test: Antiinflammatory activity in Swiss Webster mouse assessed as protection against carrageenan-induced paw edema at 30 ug/paw pretreated with ODQ for 15 mins followed by compound addition and measured after 6 hrs; conditions: dose 30.0 µg
Mus musculus [16] = test: Antiallodynic activity in local peripheral dosed Swiss Webster mouse assessed as protection against carrageenan-induced tactile allodynia measured every 3 days for 15 days; conditions: dose 3-30 µg, time 15.0 day
Mus musculus [17] = test: Antiallodynic activity in local peripheral dosed hyperglycemic Swiss Webster mouse model of neuropathic pain assessed as reversal of carrageenan-induced tactile allodynia measured after 6 hrs; conditions: dose 3-30 µg
Mus musculus [18] = species on record: Mus musculus; test: Antiallodynic activity in Swiss Webster mouse assessed as protection against carrageenan-induced tactile allodynia at 30 ug/paw pretreated with l-NAME for 15 mins followed by compound addition and measured after 6 hrs; conditions: dose 30.0 µg
Mus musculus [19] = test: Antiinflammatory activity in Swiss Webster mouse assessed as protection against carrageenan-induced paw edema at 3 to 30 ug/paw local peripheral pretreatment with compound for 15 mins before carrageenan challenge and measured every 3 days for 15 days; conditions: dose 3-30 µg, time 15.0 day
Mus musculus [20] = species on record: Mus musculus; test: Antiallodynic activity in hyperglycemic Swiss Webster mouse model of neuropathic pain assessed as reversal of carrageenan-induced tactile allodynia at 30 ug/paw, it and measured after 6 hrs; conditions: dose 30.0 µg
Mus musculus [21] = species on record: Mus musculus; test: Antiallodynic activity in Swiss Webster mouse assessed as protection against carrageenan-induced tactile allodynia at 30 ug/paw pretreated with naloxone for 15 mins followed by compound addition and measured after 6 hrs; conditions: dose 30.0 µg
Mus musculus [22] = species on record: Mus musculus; test: Antiallodynic activity in Swiss Webster mouse assessed as protection against carrageenan-induced tactile allodynia at 30 ug/paw pretreated with ODQ for 15 mins followed by compound addition and measured after 6 hrs; conditions: dose 30.0 µg
Mus musculus [23] = species on record: Mus musculus; test: Antiallodynic activity in Swiss Webster mouse assessed as protection against carrageenan-induced tactile allodynia at 30 ug/paw pretreated with flumazenil for 15 mins followed by compound addition and measured after 6 hrs; conditions: dose 30.0 µg
Mus musculus [24] = species on record: Mus musculus; test: Antiallodynic activity in Swiss Webster mouse assessed as protection against carrageenan-induced tactile allodynia at 30 ug/paw pretreated with glibenclamide for 15 mins followed by compound addition and measured after 6 hrs; conditions: dose 30.0 µg
Mus musculus [25] = test: Antiinflammatory activity in Swiss Webster mouse assessed as protection against carrageenan-induced paw edema at 30 ug/paw pretreated with naloxone for 15 mins followed by compound addition and measured after 6 hrs; conditions: dose 30.0 µg
Mus musculus [26] = test: Antiinflammatory activity in Swiss Webster mouse assessed as protection against carrageenan-induced paw edema at 30 ug/paw pretreated with methiothepin for 15 mins followed by compound addition and measured after 6 hrs; conditions: dose 30.0 µg
Mus musculus [27] = test: Antiallodynic activity in it dosed hyperglycemic Swiss Webster mouse model of neuropathic pain assessed as reversal of carrageenan-induced tactile allodynia measured after 6 hrs; conditions: dose 3-30 µg

In the case of `O=C(O)Cc1ccccc1Nc1c(Cl)cccc1Cl`, the Activity (Mus musculus [1]) was “inactive”, the Activity (Mus musculus [2]) was “Active” and the Activity (Mus musculus [3]) was “Active”. For the same molecule, the Activity (Mus musculus [4]) was “Active” and the Activity (Mus musculus [5]) was “inactive”.
`C=C[C@@]1(C)[C@H]2OC(=O)C(=C)[C@H]([C@@H]2OC(=O)/C(C)=C\C)[C@H](OC(=O)C(C)C)[C@@H]1C(=C)C(=O)O` was tested, and the Activity (Mus musculus [6]) was “inactive”, the Activity (Mus musculus [7]) was “Active” and the Activity (Mus musculus [1]) was “Active”. The Activity (Mus musculus [8]) was “inactive”, the Activity (Mus musculus [9]) was “inactive” and the Activity (Mus musculus [10]) was “Dose-Dependent Effect”. For the same molecule, the Activity (Mus musculus [11]) was “inactive”, the Activity (Mus musculus [2]) was “Active” and the Activity (Mus musculus [12]) was “Dose-Dependent Effect”. For the same molecule, the Activity (Mus musculus [13]) was “inactive”, the Activity (Mus musculus [14]) was “Dose-Dependent Effect” and the Activity (Mus musculus [15]) was “inactive”. The Activity (Mus musculus [16]) was “Dose-Dependent Effect”, the Activity (Mus musculus [3]) was “Active” and the Activity (Mus musculus [17]) was “Dose-Dependent Effect”. The Activity (Mus musculus [18]) was “inactive”, the Activity (Mus musculus [19]) was “inactive” and the Activity (Mus musculus [20]) was “Active”. The Activity (Mus musculus [4]) was “Active”, the Activity (Mus musculus [21]) was “inactive” and the Activity (Mus musculus [22]) was “inactive”. For the same molecule, the Activity (Mus musculus [23]) was “inactive”, the Activity (Mus musculus [24]) was “inactive” and the Activity (Mus musculus [5]) was “Active”. The Activity (Mus musculus [25]) was “inactive”, the Activity (Mus musculus [26]) was “inactive” and the Activity (Mus musculus [27]) was “Dose-Dependent Effect”.
In the case of `CC(C)C[C@H](CN)CC(=O)O`, the Activity (Mus musculus [7]) was “inactive” and the Activity (Mus musculus [20]) was “Active”.
